Measurements taken from ChEMBL document CHEMBL4507262, “Data for DCP probe A-1596586” (2021).

Columns and labels:
[1] = biological target: Type-1 angiotensin II receptor (Homo sapiens) (UniProt P30556); test: AT1 (h) Eurofins-Cerep binding assay; design: ligand concentration 0.05 nM; conditions: filed as antagonist, Compound concentration 10.0 uM
[2] = biological target: T1, Muscarinic acetylcholine receptor M2 (Homo sapiens) (UniProt P08172); test: M2 (h) Eurofins-Cerep binding assay; design: ligand concentration 2 nM; conditions: filed as antagonist, Compound concentration 10.0 uM
T1 sequence (whole entry): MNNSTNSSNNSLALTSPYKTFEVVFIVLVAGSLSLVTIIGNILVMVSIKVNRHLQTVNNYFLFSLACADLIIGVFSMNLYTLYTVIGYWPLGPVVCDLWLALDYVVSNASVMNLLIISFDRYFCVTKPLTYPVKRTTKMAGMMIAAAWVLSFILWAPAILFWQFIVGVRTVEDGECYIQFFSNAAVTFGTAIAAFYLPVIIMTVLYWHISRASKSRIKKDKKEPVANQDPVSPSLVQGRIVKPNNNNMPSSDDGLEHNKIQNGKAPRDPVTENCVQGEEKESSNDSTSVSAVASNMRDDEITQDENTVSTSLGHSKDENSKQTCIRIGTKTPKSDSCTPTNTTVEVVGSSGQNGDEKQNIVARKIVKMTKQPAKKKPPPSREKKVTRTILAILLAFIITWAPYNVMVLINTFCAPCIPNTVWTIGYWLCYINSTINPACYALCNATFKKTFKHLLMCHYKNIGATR

[3] = biological target: Calcitonin-gene-related peptide receptor, CALCRL/RAMP1 (Homo sapiens) (UniProt O60894+Q16602); test: CGRP (h) Eurofins-Cerep binding assay; type: protein-complex assay; design: ligand concentration 0.03 nM; conditions: filed as agonist, Compound concentration 10.0 uM
[4] = biological target: Serine/threonine-protein kinase 4 (Homo sapiens) (UniProt Q13043); conditions: Compound concentration 1000.0 nM
[5] = biological target: Glucocorticoid receptor (Homo sapiens) (UniProt P04150); test: GR (h) Eurofins-Cerep binding assay; design: ligand concentration 1.5 nM; conditions: filed as agonist, Compound concentration 10.0 uM
[6] = biological target: Platelet-derived growth factor receptor beta (Homo sapiens) (UniProt P09619); conditions: Compound concentration 1000.0 nM
Platelet-derived growth factor receptor beta (Homo sapiens), sequence (P09619 whole entry): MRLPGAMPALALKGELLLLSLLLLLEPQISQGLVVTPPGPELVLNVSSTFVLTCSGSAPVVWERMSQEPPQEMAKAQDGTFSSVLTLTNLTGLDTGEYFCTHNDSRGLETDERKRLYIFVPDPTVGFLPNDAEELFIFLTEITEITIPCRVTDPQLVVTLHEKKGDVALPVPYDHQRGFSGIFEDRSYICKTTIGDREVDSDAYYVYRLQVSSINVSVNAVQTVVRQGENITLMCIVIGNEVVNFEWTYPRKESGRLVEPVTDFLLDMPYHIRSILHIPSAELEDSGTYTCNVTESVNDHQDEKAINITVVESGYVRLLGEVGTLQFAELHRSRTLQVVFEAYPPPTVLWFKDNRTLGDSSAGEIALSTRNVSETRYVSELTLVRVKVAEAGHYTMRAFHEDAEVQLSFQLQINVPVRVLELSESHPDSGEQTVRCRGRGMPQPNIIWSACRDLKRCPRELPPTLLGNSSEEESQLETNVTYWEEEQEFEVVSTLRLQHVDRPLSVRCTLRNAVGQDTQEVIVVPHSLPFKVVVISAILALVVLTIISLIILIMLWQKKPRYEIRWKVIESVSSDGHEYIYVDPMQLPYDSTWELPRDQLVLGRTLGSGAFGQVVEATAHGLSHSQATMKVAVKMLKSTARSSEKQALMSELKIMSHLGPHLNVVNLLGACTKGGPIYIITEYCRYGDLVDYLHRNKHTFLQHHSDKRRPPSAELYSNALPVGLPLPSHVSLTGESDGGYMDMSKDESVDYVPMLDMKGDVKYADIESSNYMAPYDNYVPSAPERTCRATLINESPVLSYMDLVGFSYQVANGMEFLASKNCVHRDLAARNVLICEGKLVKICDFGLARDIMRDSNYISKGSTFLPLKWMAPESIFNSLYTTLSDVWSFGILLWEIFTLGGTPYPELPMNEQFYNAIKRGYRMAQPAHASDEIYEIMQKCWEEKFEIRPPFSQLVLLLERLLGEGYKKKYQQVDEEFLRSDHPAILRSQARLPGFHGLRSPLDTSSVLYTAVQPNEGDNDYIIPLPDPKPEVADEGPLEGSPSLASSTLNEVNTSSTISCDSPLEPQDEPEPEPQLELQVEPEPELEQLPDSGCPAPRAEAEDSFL

[7] = biological target: Serine/threonine-protein kinase LATS2 (Homo sapiens) (UniProt Q9NRM7); conditions: Compound concentration 1000.0 nM
[8] = biological target: Cyclin-dependent kinase 11A (Homo sapiens) (UniProt Q9UQ88); conditions: Compound concentration 1000.0 nM
Cyclin-dependent kinase 11A (Homo sapiens), sequence (Q9UQ88 whole entry): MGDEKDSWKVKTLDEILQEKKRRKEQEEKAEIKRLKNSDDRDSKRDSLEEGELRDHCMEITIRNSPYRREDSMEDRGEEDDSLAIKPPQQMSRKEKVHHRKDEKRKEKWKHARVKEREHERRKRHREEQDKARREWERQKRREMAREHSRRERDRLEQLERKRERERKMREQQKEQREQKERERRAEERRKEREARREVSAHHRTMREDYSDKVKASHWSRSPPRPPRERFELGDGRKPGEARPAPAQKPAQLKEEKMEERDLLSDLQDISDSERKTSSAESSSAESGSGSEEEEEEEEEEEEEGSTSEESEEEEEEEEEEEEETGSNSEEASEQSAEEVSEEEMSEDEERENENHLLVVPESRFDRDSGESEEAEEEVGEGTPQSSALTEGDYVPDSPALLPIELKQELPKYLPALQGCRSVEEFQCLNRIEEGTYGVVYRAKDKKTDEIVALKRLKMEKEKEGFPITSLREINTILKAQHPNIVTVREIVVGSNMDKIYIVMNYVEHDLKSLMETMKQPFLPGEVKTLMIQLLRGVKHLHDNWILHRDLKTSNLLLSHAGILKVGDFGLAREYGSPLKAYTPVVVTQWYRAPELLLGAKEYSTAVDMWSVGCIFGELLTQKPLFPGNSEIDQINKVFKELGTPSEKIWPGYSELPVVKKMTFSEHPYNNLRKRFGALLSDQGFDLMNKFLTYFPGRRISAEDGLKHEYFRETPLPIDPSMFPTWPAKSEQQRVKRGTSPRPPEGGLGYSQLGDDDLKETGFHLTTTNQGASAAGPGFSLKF

[9] = biological target: G protein-coupled receptor kinase 4 (Homo sapiens) (UniProt P32298); conditions: Compound concentration 1000.0 nM
[10] = biological target: Receptor tyrosine-protein kinase erbB-3 (Homo sapiens) (UniProt P21860); conditions: Compound concentration 1000.0 nM
[11] = biological target: Cyclin-dependent kinase 14 (Homo sapiens) (UniProt O94921); conditions: Compound concentration 1000.0 nM
[12] = biological target: Membrane-associated tyrosine- and threonine-specific cdc2-inhibitory kinase (Homo sapiens) (UniProt Q99640); conditions: Compound concentration 1000.0 nM
[13] = biological target: Mitotic checkpoint serine/threonine-protein kinase BUB1 (Homo sapiens) (UniProt O43683); conditions: Compound concentration 1000.0 nM
[14] = biological target: Insulin-like growth factor 1 receptor (Homo sapiens) (UniProt P08069); conditions: Compound concentration 1000.0 nM
[15] = biological target: Leukocyte tyrosine kinase receptor (Homo sapiens) (UniProt P29376); conditions: Compound concentration 1000.0 nM
[16] = biological target: Ribosomal protein S6 kinase alpha-3 (Homo sapiens) (UniProt P51812); conditions: Compound concentration 1000.0 nM
[17] = biological target: Casein kinase I isoform gamma-1 (Homo sapiens) (UniProt Q9HCP0); conditions: Compound concentration 1000.0 nM
[18] = test system: ALK tyrosine kinase receptor (Homo sapiens), Q9UM73 [C1156Y]; conditions: Compound concentration 1000.0 nM
[19] = biological target: Interleukin-1 receptor-associated kinase 1 (Homo sapiens) (UniProt P51617); conditions: Compound concentration 1000.0 nM
Interleukin-1 receptor-associated kinase 1 (Homo sapiens), sequence (P51617 whole entry, looked up): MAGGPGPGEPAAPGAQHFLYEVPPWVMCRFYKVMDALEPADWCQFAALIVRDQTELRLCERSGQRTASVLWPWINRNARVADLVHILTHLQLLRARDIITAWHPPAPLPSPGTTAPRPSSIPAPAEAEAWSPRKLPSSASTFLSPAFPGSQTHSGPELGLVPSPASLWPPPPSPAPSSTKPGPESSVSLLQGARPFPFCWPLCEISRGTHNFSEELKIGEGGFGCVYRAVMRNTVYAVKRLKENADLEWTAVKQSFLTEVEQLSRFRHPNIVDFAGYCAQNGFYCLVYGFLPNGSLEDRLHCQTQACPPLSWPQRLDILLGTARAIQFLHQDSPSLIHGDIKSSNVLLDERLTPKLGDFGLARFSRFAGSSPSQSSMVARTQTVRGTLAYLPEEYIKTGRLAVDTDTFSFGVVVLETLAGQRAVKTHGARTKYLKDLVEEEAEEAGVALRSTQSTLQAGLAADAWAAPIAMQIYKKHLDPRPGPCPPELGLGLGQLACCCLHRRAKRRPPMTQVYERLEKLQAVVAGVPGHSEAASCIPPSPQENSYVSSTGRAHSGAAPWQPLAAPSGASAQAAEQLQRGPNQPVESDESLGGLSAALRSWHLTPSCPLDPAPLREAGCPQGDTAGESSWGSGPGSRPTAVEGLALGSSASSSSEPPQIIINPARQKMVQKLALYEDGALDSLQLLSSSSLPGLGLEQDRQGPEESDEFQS

[20] = test system: eIF-2-alpha kinase GCN2 (Homo sapiens), Q9P2K8 [S808G]; conditions: Compound concentration 1000.0 nM
[21] = test system: Fibroblast growth factor receptor 3 (Homo sapiens), P22607 [G697C]; conditions: Compound concentration 1000.0 nM
[22] = biological target: Serine/threonine-protein kinase 38-like (Homo sapiens) (UniProt Q9Y2H1); conditions: Compound concentration 1000.0 nM
Serine/threonine-protein kinase 38-like (Homo sapiens), sequence (Q9Y2H1 2-464 limits assumed): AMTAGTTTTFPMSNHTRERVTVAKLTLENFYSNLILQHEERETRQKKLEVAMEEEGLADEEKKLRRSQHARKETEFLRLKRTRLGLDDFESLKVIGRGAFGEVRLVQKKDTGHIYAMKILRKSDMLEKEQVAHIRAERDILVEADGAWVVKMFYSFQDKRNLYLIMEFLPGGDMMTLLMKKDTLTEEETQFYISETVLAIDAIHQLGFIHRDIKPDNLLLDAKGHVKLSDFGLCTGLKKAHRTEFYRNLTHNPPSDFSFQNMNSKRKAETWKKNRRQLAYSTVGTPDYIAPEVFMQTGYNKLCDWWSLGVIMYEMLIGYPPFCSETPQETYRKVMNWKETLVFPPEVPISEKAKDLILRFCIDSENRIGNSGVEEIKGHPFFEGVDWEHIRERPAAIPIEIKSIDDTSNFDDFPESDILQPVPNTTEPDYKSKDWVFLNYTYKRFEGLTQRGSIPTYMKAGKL

[23] = biological target: Estrogen receptor (Homo sapiens) (UniProt P03372); test: Estrogen ER alpha (h) Eurofins-Cerep binding assay; design: ligand concentration 0.5 nM; conditions: filed as agonist, Compound concentration 10.0 uM
[24] = biological target: Serine/threonine-protein kinase SIK1 (Homo sapiens) (UniProt P57059); conditions: Compound concentration 1000.0 nM
[25] = biological target: Ribosomal protein S6 kinase alpha-5 (Homo sapiens) (UniProt O75582); conditions: Compound concentration 1000.0 nM
[26] = test system: Epidermal growth factor receptor (Homo sapiens), P00533 [UNDEFINED MUTATION]; conditions: Compound concentration 1000.0 nM
[27] = biological target: NUAK family SNF1-like kinase 1 (Homo sapiens) (UniProt O60285); conditions: Compound concentration 1000.0 nM
[28] = biological target: Protein-tyrosine kinase 6 (Homo sapiens) (UniProt Q13882); conditions: Compound concentration 1000.0 nM
[29] = biological target: Glycogen synthase kinase-3 beta (Homo sapiens) (UniProt P49841); conditions: Compound concentration 1000.0 nM
[30] = biological target: Macrophage colony-stimulating factor 1 receptor (Homo sapiens) (UniProt P07333); conditions: Compound concentration 1000.0 nM
Macrophage colony-stimulating factor 1 receptor (Homo sapiens), sequence (P07333 whole entry): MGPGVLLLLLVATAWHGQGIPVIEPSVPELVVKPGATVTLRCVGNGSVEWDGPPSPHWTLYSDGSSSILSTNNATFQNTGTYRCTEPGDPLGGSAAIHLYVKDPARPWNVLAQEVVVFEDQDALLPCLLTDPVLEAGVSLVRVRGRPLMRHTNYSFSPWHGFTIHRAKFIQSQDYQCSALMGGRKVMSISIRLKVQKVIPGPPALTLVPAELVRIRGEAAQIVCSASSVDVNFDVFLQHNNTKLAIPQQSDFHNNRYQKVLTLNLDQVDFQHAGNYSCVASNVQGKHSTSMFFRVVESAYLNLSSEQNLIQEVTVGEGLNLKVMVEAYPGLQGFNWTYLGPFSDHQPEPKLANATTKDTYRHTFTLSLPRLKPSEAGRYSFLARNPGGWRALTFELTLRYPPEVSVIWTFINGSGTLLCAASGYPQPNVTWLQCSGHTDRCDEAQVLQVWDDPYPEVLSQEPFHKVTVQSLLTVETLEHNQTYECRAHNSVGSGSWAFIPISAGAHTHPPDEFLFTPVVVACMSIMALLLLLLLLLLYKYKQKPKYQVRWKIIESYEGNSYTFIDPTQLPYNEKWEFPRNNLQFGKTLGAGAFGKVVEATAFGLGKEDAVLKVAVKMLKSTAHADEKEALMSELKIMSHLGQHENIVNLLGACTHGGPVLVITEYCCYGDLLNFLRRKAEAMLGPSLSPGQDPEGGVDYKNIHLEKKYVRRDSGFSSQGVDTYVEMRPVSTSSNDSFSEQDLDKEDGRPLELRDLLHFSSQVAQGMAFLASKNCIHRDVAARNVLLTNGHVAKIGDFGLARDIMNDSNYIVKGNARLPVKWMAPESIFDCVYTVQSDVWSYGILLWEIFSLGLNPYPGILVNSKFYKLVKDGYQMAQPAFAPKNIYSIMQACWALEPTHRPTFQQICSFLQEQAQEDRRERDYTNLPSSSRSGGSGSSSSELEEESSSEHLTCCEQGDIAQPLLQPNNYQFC

[31] = biological target: Sigma non-opioid intracellular receptor 1 (Homo sapiens, UniProt Q99720); test: sigma (non-selective) (h) Eurofins-Cerep binding assay; design: ligand concentration 10 nM; conditions: filed as agonist, Compound concentration 10.0 uM
Sigma non-opioid intracellular receptor 1, sequence (Q99720 whole entry): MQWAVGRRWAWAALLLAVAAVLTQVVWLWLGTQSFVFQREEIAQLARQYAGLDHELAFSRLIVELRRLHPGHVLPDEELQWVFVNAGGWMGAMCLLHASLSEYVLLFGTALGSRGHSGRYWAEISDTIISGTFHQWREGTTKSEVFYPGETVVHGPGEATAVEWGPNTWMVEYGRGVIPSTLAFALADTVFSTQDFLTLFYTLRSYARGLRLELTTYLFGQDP

[32] = biological target: Calcium/calmodulin-dependent protein kinase type II subunit beta (Homo sapiens) (UniProt Q13554); conditions: Compound concentration 1000.0 nM
[33] = biological target: Myosin-IIIa (Homo sapiens) (UniProt Q8NEV4); conditions: Compound concentration 1000.0 nM
[34] = biological target: Translocator protein (Rattus norvegicus) (UniProt P16257); test: BZD (peripheral) Eurofins-Cerep binding assay; design: ligand concentration 0.2 nM; conditions: filed as antagonist, Compound concentration 10.0 uM
Translocator protein (Rattus norvegicus), sequence (P16257 whole entry, looked up): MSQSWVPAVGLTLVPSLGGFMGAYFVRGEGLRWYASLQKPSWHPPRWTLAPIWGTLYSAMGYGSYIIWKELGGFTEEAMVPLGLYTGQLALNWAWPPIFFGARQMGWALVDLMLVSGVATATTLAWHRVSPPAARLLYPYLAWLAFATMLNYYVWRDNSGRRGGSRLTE

[35] = biological target: Serine/threonine-protein kinase TNNI3K (Homo sapiens) (UniProt Q59H18); conditions: Compound concentration 1000.0 nM
[36] = biological target: Myosin light chain kinase family member 4 (Homo sapiens) (UniProt Q86YV6); conditions: Compound concentration 1000.0 nM
[37] = test system: Epidermal growth factor receptor (Homo sapiens), P00533 [L858R]; conditions: Compound concentration 1000.0 nM
[38] = biological target: Serine/threonine-protein kinase Sgk3 (Homo sapiens) (UniProt Q96BR1); conditions: Compound concentration 1000.0 nM
[39] = biological target: Tyrosine-protein kinase ZAP-70 (Homo sapiens) (UniProt P43403); conditions: Compound concentration 1000.0 nM

Type-1 angiotensin II receptor (Homo sapiens), sequence (P30556 whole entry): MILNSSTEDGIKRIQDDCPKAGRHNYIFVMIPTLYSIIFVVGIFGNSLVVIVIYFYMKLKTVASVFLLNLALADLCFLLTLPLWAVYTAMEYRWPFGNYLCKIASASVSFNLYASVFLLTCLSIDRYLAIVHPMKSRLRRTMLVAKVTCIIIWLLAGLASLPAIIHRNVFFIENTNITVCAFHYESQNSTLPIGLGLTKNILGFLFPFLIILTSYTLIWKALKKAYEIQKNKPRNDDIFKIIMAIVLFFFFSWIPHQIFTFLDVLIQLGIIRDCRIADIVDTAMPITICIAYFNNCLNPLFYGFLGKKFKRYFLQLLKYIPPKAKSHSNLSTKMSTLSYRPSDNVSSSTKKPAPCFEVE

Row | Structure (SMILES) | % Inhibition of Control Specific Binding (Mean n=2) [1] | % Inhibition of Control Specific Binding (Mean n=2) [2] | % Inhibition of Control Specific Binding (Mean n=2) [3] | residual activity [4] | % Inhibition of Control Specific Binding (Mean n=2) [5] | residual activity [6] | residual activity [7] | residual activity [8] | residual activity [9] | residual activity [10] | residual activity [11] | residual activity [12] | residual activity [13] | residual activity [14] | residual activity [15] | residual activity [16] | residual activity [17] | residual activity [18] | residual activity [19] | residual activity [20] | further results
1 | COc1ccc2c(c1)O[C@H](c1ccc(OC)c(OC)c1)C[C@@H]2NC(=O)C1(c2ccc3c(c2)OC(F)(F)O3)CC1 [A-1596584] | 12.3% | -5.5% | -2.5% | 95% | 13.7% | 100% | 89% | 100% | 100% | 92% | 98% | 100% | 100% | 98% | 100% | 93% | 100% | 100% | 93% | 97% | residual activity [21]: 93%; residual activity [22]: 100%; % Inhibition of Control Specific Binding (Mean n=2) [23]: -4%; residual activity [24]: 100%; residual activity [25]: 91%; residual activity [26]: 100%; residual activity [27]: 95%; residual activity [28]: 100%; residual activity [29]: 100%; residual activity [30]: 100%; % Inhibition of Control Specific Binding (Mean n=2) [31]: 33.1%; residual activity [32]: 88%; residual activity [33]: 100%; % Inhibition of Control Specific Binding (Mean n=2) [34]: 79.1%; residual activity [35]: 100%; residual activity [36]: 100%; residual activity [37]: 100%; residual activity [38]: 100%; residual activity [39]: 93%
2 | COc1ccc2c(c1)O[C@@H](c1ccc(OC)c(OC)c1)C[C@H]2NC(=O)C1(c2ccc3c(c2)OC(F)(F)O3)CC1 [A-1596586] | -1.1% | -9.9% | -7% | 79% | 22.1% | 100% | 100% | 100% | 92% | 86% | 93% | 90% | 99% | 90% | 100% | 100% | 99% | 84% | 80% | 95% | residual activity [21]: 95%; residual activity [22]: 100%; % Inhibition of Control Specific Binding (Mean n=2) [23]: 2.9%; residual activity [24]: 100%; residual activity [25]: 100%; residual activity [26]: 100%; residual activity [27]: 86%; residual activity [28]: 100%; residual activity [29]: 92%; residual activity [30]: 100%; % Inhibition of Control Specific Binding (Mean n=2) [31]: 35.1%; residual activity [32]: 69%; residual activity [33]: 93%; % Inhibition of Control Specific Binding (Mean n=2) [34]: 95.9%; residual activity [35]: 100%; residual activity [36]: 97%; residual activity [37]: 97%; residual activity [38]: 84%; residual activity [39]: 71%
